Results published in the NIST ThermoML archive (doi:10.1021/je900596d).
Numbers after ± are expanded uncertainties.

Settings: 283.17 K, Liquid, Vibrating tube method

FC(F)=C(F)C(F)(F)F [hexafluoropropene]
Settings | mass density [kg/m3]
2350.5 kPa | 1395.59 ± 1.4
2406.1 kPa | 1396.02 ± 1.4
2455.4 kPa | 1396.26 ± 1.4
2506.6 kPa | 1396.64 ± 1.4
2551.5 kPa | 1396.81 ± 1.4
2593.9 kPa | 1397.25 ± 1.4
2644 kPa | 1397.48 ± 1.4
2684 kPa | 1397.73 ± 1.4
2734.9 kPa | 1398.07 ± 1.4
2785.7 kPa | 1398.39 ± 1.4
2848.1 kPa | 1398.74 ± 1.4
2900.4 kPa | 1399.13 ± 1.4
2951 kPa | 1399.5 ± 1.4
3020.7 kPa | 1400.01 ± 1.4
3136.8 kPa | 1400.76 ± 1.4
3180.2 kPa | 1400.96 ± 1.4
3236.8 kPa | 1401.44 ± 1.4
3291.9 kPa | 1401.74 ± 1.4
3350 kPa | 1402.05 ± 1.4
3394.2 kPa | 1402.39 ± 1.4
3434.9 kPa | 1402.61 ± 1.4
3476.3 kPa | 1403.01 ± 1.4
3535.7 kPa | 1403.26 ± 1.4
3591.4 kPa | 1403.66 ± 1.4
3653.3 kPa | 1403.98 ± 1.4
3709.6 kPa | 1404.3 ± 1.4
3821.9 kPa | 1405.06 ± 1.4
3864.3 kPa | 1405.48 ± 1.4
3907.8 kPa | 1405.66 ± 1.4
3949 kPa | 1405.94 ± 1.4
4020.4 kPa | 1406.43 ± 1.4
4078.5 kPa | 1406.71 ± 1.4
4127.6 kPa | 1407.05 ± 1.4
4182.4 kPa | 1407.4 ± 1.4
4239.6 kPa | 1407.72 ± 1.4
4293.4 kPa | 1408.17 ± 1.4
4409.9 kPa | 1408.82 ± 1.4
4465.6 kPa | 1409.18 ± 1.4
4516.2 kPa | 1409.47 ± 1.4
4620.4 kPa | 1410.09 ± 1.4
4676.1 kPa | 1410.42 ± 1.4
4728.4 kPa | 1410.73 ± 1.4
4783.7 kPa | 1411.1 ± 1.4
4835.3 kPa | 1411.33 ± 1.4
4889.5 kPa | 1411.65 ± 1.4
4943.6 kPa | 1412.08 ± 1.4
4996 kPa | 1412.33 ± 1.4
5057.6 kPa | 1412.68 ± 1.4
5126.3 kPa | 1413.1 ± 1.4
5167.5 kPa | 1413.34 ± 1.4
5237.5 kPa | 1413.76 ± 1.4
5303.9 kPa | 1414.14 ± 1.4
5372.7 kPa | 1414.61 ± 1.4
5504.1 kPa | 1415.44 ± 1.4
5572.6 kPa | 1415.73 ± 1.4
5644.7 kPa | 1416.12 ± 1.4
5720.2 kPa | 1416.66 ± 1.4
5786.5 kPa | 1416.98 ± 1.4
5855.5 kPa | 1417.42 ± 1.4
5920.9 kPa | 1417.74 ± 1.4
5997.2 kPa | 1418.2 ± 1.4
6065.1 kPa | 1418.58 ± 1.4
6130.5 kPa | 1419 ± 1.4
6196 kPa | 1419.33 ± 1.4
6260.9 kPa | 1419.73 ± 1.4
6326.3 kPa | 1420.11 ± 1.5
6398.7 kPa | 1420.44 ± 1.5
